Literature values, collected in patent US20150258085A1, “Treating Tumors of the Central Nervous System” (THE REGENTS OF THE UNIVERSITY OF CALIFORNIA, priority 2012, published 2015).

Test system: newly diagnosed glioblastoma
Details: systemic irinotecan plus TMZ versus TMZ alone

Q: With `CCc1c2c(nc3ccc(OC(=O)N4CCC(N5CCCCC5)CC4)cc13)-c1cc3c(c(=O)n1C2)COC(=O)[C@]3(O)CC` [irinotecan] as the compound, how does the clinical outcome read?
A: The clinical outcome was “comparable to TMZ alone”.

Q: And the toxicity / tolerability?
A: The toxicity / tolerability was “more toxic and poorly tolerated”.
